Where no end group is shown, it is not given here.
Tested on: 4T1细胞
Assay: In vitro antitumor evaluation: MTT cell viability assay in 4T1 cells
Assay type: cell-based
Conditions: 48 h

For LLVVYPWTQR [LLVV-Hemorphin-6肽], the “细胞抑制效果 (cell inhibition effect), peptide alone at high concentration” value (peptide 10 μM) was “存在一定的细胞抑制效果” and the “细胞抑制率 (cell inhibition rate), peptide alone” value (peptide 0.0001-10 μM) was “较低”.

— patent publication CN105367624A, “一种LLVV-Hemorphin-6肽的制备方法和用途” (Individual, priority 2015, dated 2016)
